Experimental data from patent publication US20230150997A1, “EIF4E INHIBITORS AND USES THEREOF” (PIC Therapeutics, Inc., priority 2021, published 2023).

Molecular target: T1, Human eIF4E (Homo sapiens, UniProt P06730)
T1 construct: Human eIF4E (aa 28-217) with a C-terminal His-tag; made in house
Assay: Human eIF4E/4G2 binding assay (TR-FRET)
Settings: purified human eIF4E (aa 28-217), biotin labeled 4G2 peptide, 4 hours preincubation at room temperature
Experimental: Example 3. Compound Testing in Human eIF4E/4G2 Binding Assay
Human eIF4E (aa 28-217) with a C-terminal His-tag was expressed in E. coli in inclusion bodies. The protein was solubilized with 8 M urea and purified under denaturing conditions using nickel-charged HisTrap HP columns (GE Healthcare). The purified protein was then refolded by diluting in 20 mM Hepes pH 7.0, 0.5 M NaCl, 1 mM DTT, 1 mM EDTA, 0.5 M arginine plus 6 M urea, and then dialyzing overnight into the same buffer without the urea. The protein was further dialyzed into 20 mM Hepes, pH 6.5, 50 mM NaCl, 1 mM EDTA, 1 mM DTT, and concentrated using Hitrap SP sepharose FF columns (GE Healthcare). The concentrated protein was dialyzed into 20 mM Hepes, pH 7.0, 0.5 M NaCl, 5 mM DTT and 10% glycerol, and stored at -80° C. until use.
Test compounds (3.43 mM stock in DMSO) were diluted 2-fold in series in DMSO (10 concentration points). Compound solutions (1.2 µl/well) were added into black 384-well polypropylene microplates (Matrix, Thermal Scientific). Twenty-two microliters per well of Assay Buffer (50 mM NaPi, pH 6.5, 50 mM KCl, 1 mM DTT and 0.5 mg/ml gamma globulin) and eight microliters per well of 82.5 nM purified eIF4E in Assay Buffer were added. The samples were incubated at room temperature (20-23° C.) for 4 hours. Biotin labeled 4G2 peptide (Ac-Lys-Gln-Tyr-Asp-Arg-Glu-Phe-Leu-Leu-Asp-Phe-Gln-Phe-Met-Pro-Lys(Aha-Bio)-NH2, 1.75 µM stock in DMSO) was diluted to 0.14 µM in Assay Buffer (without DTT) and 5 µl/well was added. The samples were incubated at room temperature for 20 min. Five microliters per well of 6.4 nM Eu-streptavidin (Eu-SA, Perkin Elmer) and 80 nM Allophycocyanin (APC)-anti His antibody (Columbia Biosciences) in Assay Buffer (without DTT) were then added and the samples were incubated at room temperature for 20 min.
Assay signals were monitored by reading excitation at 340 nm and emission fluorescence at 615 nm and 665 nm on an Envision reader (Perkin Elmer). Normalized TR-FRET (time-resolved fluorescence resonance energy transfer) assay signal (Rn) was calculated by the formula: Rn = [(A-Ba-C x D)/(D-Bd)] x (Dc- Bd) • Where A is the fluorescence intensity of the sample at 665 nm, • D is the fluorescence intensity of the sample at 615 nm, • Ba and Bd are plate backgrounds at 665 nm and 615 nm, respectively, • Dc is the fluorescence intensity of 0.78 nM Eu-SA in the assay buffer at 615 nm • The cross-talk factor (C) is determined by the following formula: • C = (Ac- Ba)/(Dc-Bd) • Where Ac is the fluorescence intensity of 0.78 nM Eu-SA in the assay buffer at 665 nm.
IC50 values were calculated using xLFit program (IDBS). Table 2 below lists […] of some compounds, wherein A represents IC50 ≤ 0.5 µM; B represents 0.5 uM < IC50 ≤ 1 µM; and C represents IC50 > 1 µM.

T1 sequence (P06730 28-217): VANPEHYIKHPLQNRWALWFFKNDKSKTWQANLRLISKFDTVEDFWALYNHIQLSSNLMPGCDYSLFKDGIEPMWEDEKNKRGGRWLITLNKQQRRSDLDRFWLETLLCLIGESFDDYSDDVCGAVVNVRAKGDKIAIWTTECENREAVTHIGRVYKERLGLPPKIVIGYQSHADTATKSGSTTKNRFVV

Row | SMILES | IC50 [nM]
1 | COc1cc(-c2nc(Nc3ncc(-c4cccs4)cc3C(=O)O)sc2CC(C)C)ccc1C(F)(F)F [I-77] | ≤ 500
2 | COCCOc1ccc(-c2nc(Nc3ncc(-c4cc(C)cs4)cc3C(=O)O)sc2CC(C)C)cc1F [I-42] | ≤ 500
3 | COc1ccc(-c2nc(Nc3ncc(-c4cccs4)nc3C(=O)O)sc2CCC(C)C)cc1F [I-62] | ≤ 500
4 | CNCCOc1ccc(-c2nc(Nc3ncc(-c4cccs4)cc3C(=O)O)sc2CC(C)C)cc1Cl [I-3, 2-((4-(3-chloro-4-(2-(methylamino)ethoxy)phenyl)-5-isobutylthiazol-2-yl)amino)-5-(thiophen-2-yl)nicotinic acid] | > 1000
5 | CC(C)Cc1sc(Nc2ncc(-c3cccs3)cc2C(=O)O)nc1-c1cccs1 [I-126] | ≤ 500
6 | COc1cc(-c2nc(Nc3ncc(-c4cccs4)cc3C(=O)O)sc2CCC(C)C)ccc1C(F)(F)F [I-88] | ≤ 500
7 | CC(C)Cc1sc(Nc2ncc(-c3cccs3)cc2C(=O)O)nc1-c1ccc2c(c1)OCO2 [I-124, 2-((4-(benzo[d][1,3]dioxol-5-yl)-5-isobutylthiazol-2-yl)amino)-5-(thiophen-2-yl)nicotinic acid] | ≤ 500
8 | COc1cc(-c2nc(Nc3ncc(-c4cccs4)cc3C(=O)O)sc2CCC(C)C)ccc1Cl [I-90] | ≤ 500
9 | COc1ccc(-c2nc(Nc3ncc(-c4cccs4)cc3C(=O)O)sc2C2CC2)c(F)c1 [I-27] | 500 to 1000
10 | COCCOc1cccc(-c2nc(Nc3ncc(-c4cccs4)cc3C(=O)OC)sc2CC(C)C)c1 [I-148, methyl 2-((5-isobutyl-4-(3-(2-methoxyethoxy)phenyl)thiazol-2-yl)amino)-5-(thiophen-2-yl)nicotinate] | > 1000
11 | COc1ccc(-c2nc(Nc3ncc(-c4cccs4)cc3C(=O)O)sc2CCC(C)C)cc1F [I-69] | ≤ 500
12 | COCCOc1ccc(-c2nc(Nc3ncc(-c4cccs4)cc3C(=O)O)sc2C2CC2)cc1F [I-29] | 500 to 1000
13 | COCCOc1ccc(-c2nc(Nc3ncc(-c4cc(C)cs4)cc3C(=O)O)sc2C2CCCC2)cc1 [1-38] | 500 to 1000
14 | CC(C)Cc1sc(Nc2ncc(-c3cccs3)cc2C(=O)O)nc1-c1ccc(O)c(Cl)c1 [I-1, 2-((4-(3-chloro-4-hydroxyphenyl)-5-isobutylthiazol-2-yl)amino)-5-(thiophen-2-yl)nicotinic acid] | ≤ 500
15 | CCN(CC)CCOCCOc1cccc(-c2nc(Nc3ncc(-c4cccs4)cc3C(=O)O)sc2CC(C)C)c1 [I-117] | > 1000
16 | CC(C)Cc1sc(Nc2ncc(-c3cccs3)cc2C(=O)O)nc1-c1cccc(OCCOCCN(C)C)c1 [I-116] | > 1000
17 | CCOCCOc1ccc(-c2nc(Nc3ncc(-c4cccs4)cc3C(=O)O)sc2CC(C)C)cc1F [I-66] | ≤ 500
18 | COCCOc1ccc(-c2nc(Nc3ncc(-c4cccs4)nc3C(=O)O)sc2CC(C)C)cc1F [I-54] | ≤ 500
19 | Cc1ccc(-c2cnc(Nc3nc(-c4ccc(OC(F)F)cc4)c(C4CCCC4)s3)c(C(=O)O)c2)s1 [I-40] | ≤ 500

Row | SMILES | IC50 [nM]
20 | CC(C)Cc1sc(Nc2ncc(-c3cccs3)cc2C(=O)O)nc1-c1ccc2c(c1)OC(C)(C)O2 [I-125] | ≤ 500
21 | COCCOc1cc(-c2nc(Nc3ncc(-c4cccs4)cc3C(=O)O)sc2CCC(C)C)ccc1F [I-84] | ≤ 500
22 | CC(C)COc1cc(-c2nc(Nc3ncc(-c4cccs4)cc3C(=O)O)sc2CC(C)C)ccc1F [I-89] | ≤ 500
23 | CCCc1sc(Nc2ncc(-c3cccs3)cc2C(=O)O)nc1-c1cccc(OCC)c1 [I-112] | ≤ 500
24 | COCCOc1ccc(-c2nc(Nc3ncc(-c4cccs4)cc3C(=O)O)sc2CCOC)cc1F [I-50] | 500 to 1000
25 | COCCOc1ccc(-c2nc(Nc3ncc(-c4cccc(F)c4)cc3C(=O)O)sc2CC(C)C)cc1F [I-52] | ≤ 500
26 | CCOc1cccc(-c2nc(Nc3ncc(-c4cccs4)cc3C(=O)O)sc2CC(C)(C)C)c1 [I-98] | ≤ 500
27 | CCOc1cccc(-c2nc(Nc3ncc(-c4cccs4)cc3C(=O)O)sc2CCC(C)C)c1 [I-105] | ≤ 500
28 | COCCOc1ccc(-c2nc(Nc3ncc(-c4cccs4)cc3C(=O)O)sc2CC(C)C)cc1C(F)(F)F [I-58] | ≤ 500
29 | COCCOc1cc(-c2nc(Nc3ncc(-c4cccs4)cc3C(=O)O)sc2CC(C)C)ccc1F [I-59] | 500 to 1000
30 | COCCOc1ccc(-c2nc(Nc3ncc(-c4ccco4)cc3C(=O)O)sc2CC(C)C)cc1F [I-57] | 500 to 1000
31 | CC(C)COc1cc(-c2nc(Nc3ncc(-c4cccs4)cc3C(=O)O)sc2CC(C)(C)C)ccc1Cl [I-97] | ≤ 500
32 | COCCCOc1ccc(-c2nc(Nc3ncc(-c4cccs4)cc3C(=O)O)sc2CC(C)C)cc1F [I-47] | ≤ 500
33 | COCCOc1ccc(-c2nc(Nc3ncc(-c4cccs4)cc3C(=O)O)sc2C2CCCC2)cc1F [I-32] | 500 to 1000
34 | COCCOc1ccc(-c2nc(Nc3ncc(-c4cccs4)cc3C(=O)OC)sc2CC(C)C)cc1F [I-53, methyl 2-((4-(3-fluoro-4-(2-methoxyethoxy)phenyl)-5-isobutylthiazol-2-yl)amino)-5-(thiophen-2-yl)nicotinate] | > 1000
35 | O=C(O)c1cc(-c2cccs2)cnc1Nc1nc(-c2ccc(OC3CC3)cc2)c(C2CC2)s1 [I-19] | 500 to 1000
36 | COCCOc1ccc(-c2nc(Nc3ncc(-c4cccs4)cc3C(=O)O)sc2C(C)C)cc1F [I-31] | 500 to 1000
37 | Cc1ccc(-c2nc(Nc3ncc(-c4cccs4)cc3C(=O)O)sc2CC(C)C)cc1OC(C)C [I-114] | ≤ 500

Results, then the molecule that gave them:

Row | IC50 [nM] | SMILES
38 | ≤ 500 | COc1ccc(-c2nc(Nc3ccc(-c4cccs4)nc3C(=O)O)sc2CC(C)C)cc1F [I-70]
39 | ≤ 500 | COCCOc1cccc(-c2nc(Nc3ncc(-c4cccs4)cc3C(=O)O)sc2CC(C)C)c1 [I-122, 2-((5-isobutyl-4-(3-(2-methoxyethoxy)phenyl)thiazol-2-yl)amino)-5-(thiophen-2-yl)nicotinic acid]
40 | ≤ 500 | COc1cccc(-c2nc(Nc3ncc(-c4cccs4)cc3C(=O)O)sc2CC(C)C)c1 [I-78]
41 | > 1000 | Cc1ccc(-c2cnc(Nc3nc(-c4ccc(OC(F)F)cc4)c(CC(C)C)s3)c(C(=O)O)c2)s1 [I-33]
42 | ≤ 500 | CC(C)Cc1sc(Nc2ncc(-c3cccs3)cc2C(=O)O)nc1-c1ccc(OCC(F)(F)F)cc1 [I-7]
43 | 500 to 1000 | CCOc1cccc(-c2nc(Nc3cc(C(=O)O)c(-c4cccs4)cn3)sc2CC(C)C)c1 [I-130, 2-((4-(3-ethoxyphenyl)-5-isobutylthiazol-2-yl)amino)-5-(thiophen-2-yl)isonicotinic acid]
44 | ≤ 500 | COc1cc(-c2nc(Nc3ncc(-c4cccs4)cc3C(=O)O)sc2CC(C)C)ccc1C [I-107]
45 | 500 to 1000 | COc1ccc(-c2nc(Nc3cc(-c4ccccc4)sc3C(=O)O)sc2CC(C)C)cc1 [I-12]
46 | ≤ 500 | COc1cc(-c2nc(Nc3ncc(-c4cccs4)cc3C(=O)O)sc2CC(C)C)ccc1Cl [I-74]
47 | ≤ 500 | COCCOc1ccc(-c2nc(Nc3ccc(-c4cccs4)cc3C(=O)O)sc2CC(C)C)cc1F [I-64]
48 | 500 to 1000 | CC(C)Cc1sc(Nc2ncc(-c3cccs3)cc2C(=O)O)nc1-c1ccc(OC(F)F)cc1 [I-15]
49 | ≤ 500 | CC(C)Cc1sc(Nc2ncc(-c3cccs3)cc2C(=O)O)nc1-c1ccc(OCC(N)=O)cc1 [I-17, 2-((4-(4-(2-amino-2-oxoethoxy)phenyl)-5-isobutylthiazol-2-yl)amino)-5-(thiophen-2-yl)nicotinic acid]
50 | ≤ 500 | CC(C)Cc1sc(Nc2ncc(-c3cccs3)cc2C(=O)O)nc1-c1cccc(OC(C)C)c1 [I-113]
51 | ≤ 500 | CCOc1ccc(-c2nc(Nc3ncc(-c4cccs4)cc3C(=O)O)sc2CC(C)C)cc1 [I-11]
52 | 500 to 1000 | CC(C)Cc1sc(Nc2cc(-c3ccccc3)sc2C(=O)O)nc1-c1ccc(OC2CC2)cc1 [I-14]
53 | ≤ 500 | CC(C)Cc1sc(Nc2ncc(-c3cccs3)cc2C(=O)O)nc1-c1cccc(OCC(F)(F)F)c1 [I-102]
54 | ≤ 500 | Cc1csc(-c2cnc(Nc3nc(-c4ccc(OC(F)F)cc4)c(CC(C)C)s3)c(C(=O)O)c2)c1 [1-36]
55 | ≤ 500 | COCCOc1ccc(-c2nc(Nc3ncc(-c4ccc(C)s4)cc3C(=O)O)sc2CC(C)C)cc1 [I-34]
